Converted amounts (≈) assume the structure as drawn.
Legend:
Format in all cases: physicochemical
[1] = Stability testing of blended samples exposed to high temperature and/or humidity for four weeks
Source text: Compound 1, microcrystalline cellulose, D-mannitol, croscarmellose sodium, and magnesium stearate were blended using standard methods. Results from stability testing from exposure of blended samples to high temperature and/or humidity for four weeks are provided in Table 8.

[2] = Four-week excipient compatibility study under accelerated stress conditions; conditions: four weeks, 40° C./75% relative humidity and 60° C. accelerated stress conditions
[3] = Solubility testing of solid forms in water, SGF, FaSSIF and FeSSIF media
Protocol: About 15 mg of test material was weighed into a sample vial and then 3.0 mL of water, simulated gastric fluid (SGF), fasted state simulated intestinali fluid (FaSSIF), or fed state simulated intestinal fluid (FeSSIF) media was added. The resulting suspensions were shaken at 37° C. for up to 24 hours. At 0.5, 2, and 24 hours, suspensions were filtered, and test material concentrations in the filtrates were analyzed by HPLC. Residual solids were collected for analysis.

[4] = Powder properties of Form 1 (bulk density, flowability)
Source text: Use of a glidant, disintegrant, and lubricant allowed for acceptable tableting and disintegration characteristics.

[5] = FaSSIF, pH of media 6.5, 37° C., listed as Free base (Form 1)
[6] = FeSSIF, pH of media 5.0, 37° C.
[7] = FeSSIF, pH of media 5.0, 37° C., listed as Free base (Form 1)
[8] = SGF, pH of media 1.2, 37° C., listed as Free base (Form 1)
[9] = Water, 37° C., listed as Free base (Form 1)
[10] = SGF, pH of media 1.2, 37° C., listed as 1-Hydroxy-2-naphthoate (Form 13)
[11] = Water, 37° C., listed as 1-Hydroxy-2-naphthoate (Form 13)
[12] = FaSSIF, pH of media 6.5, 37° C., listed as Fumarate (Form 8)
[13] = FeSSIF, pH of media 5.0, 37° C., listed as Fumarate (Form 8)
[14] = SGF, pH of media 1.2, 37° C., listed as Fumarate (Form 8)
[15] = Water, 37° C., listed as Fumarate (Form 8)
[16] = FaSSIF, pH of media 6.5, 37° C.

Q: With `Cn1cncc1[C@@]1(N)c2ccc(C#N)c(c2)COc2cccc(c2)-c2cc(C#N)nc3ccc1cc23` [Compound 1, (S)-3-amino-3-(1-methyl-1H-imidazol-5-yl)-6-oxa-2(4,6)-quinolina-1,4(1,3)-dibenzenacyclohexaphane-2^2,4^4-dicarbonitrile] as the compound, how does the “% Purity 60° C.” value [1] read?
A: 99.35%

Q: What about the “Compatibility with Tablet Formulation 1 excipients” value [2] of the same compound?
A: no incompatibility

Q: For `Cn1cncc1[C@@]1(N)c2ccc(C#N)c(c2)COc2cccc(c2)-c2cc(C#N)nc3ccc1cc23` [Form 1, (S)-3-amino-3-(1-methyl-1H-imidazol-5-yl)-6-oxa-2(4,6)-quinolina-1,4(1,3)-dibenzenacyclohexaphane-2^2,4^4-dicarbonitrile], which “Solubility (mg/mL) 2 h” value [3, 5] is on record?
A: 0.0066 mg/mL (≈ 14.1 µM)

Q: And the “Solubility (mg/mL) 24 h” value [3, 5]?
A: 0.011 mg/mL (≈ 23.5 µM)

Q: And the “Solubility (mg/mL) 2 h” value [3, 6]?
A: ~0.31 mg/mL (≈ 662 µM)

Q: What about the “Solubility (mg/mL) 2 h” value [3, 7] of the same compound?
A: 0.31 mg/mL (≈ 662 µM)

Q: What about the “Solubility (mg/mL) 24 h” value [3, 6] of the same compound?
A: ~0.33 mg/mL (≈ 704 µM)

Q: And the “Solubility (mg/mL) 24 h” value [3, 7]?
A: 0.33 mg/mL (≈ 704 µM)

Q: And the “Solubility (mg/mL) 2 h” value ([3]; SGF, pH of media 1.2, 37° C.)?
A: ~5.04 mg/mL (≈ 10800 µM)

Q: What about the “Solubility (mg/mL) 2 h” value [3, 8] of the same compound?
A: 5.04 mg/mL (≈ 10800 µM)

Q: And the “Solubility (mg/mL) 24 h” value ([3]; SGF, pH of media 1.2, 37° C.)?
A: ~3.67 mg/mL (≈ 7830 µM)

Q: And the “Solubility (mg/mL) 24 h” value [3, 8]?
A: 3.67 mg/mL (≈ 7830 µM)

Q: And the “Solubility (mg/mL) 2 h” value [3, 9]?
A: <LOD

Q: What about the “Solubility (mg/mL) 24 h” value [3, 9] of the same compound?
A: <LOD

Q: And the bulk density [4]?
A: about 0.2 g/mL

Q: Which “Solubility (mg/mL) 2 h” value ([3]; FaSSIF, pH of media 6.5, 37° C., listed as 1-Hydroxy-2-naphthoate (Form 13)) does the source give for `Cn1cncc1[C@@]1(N)c2ccc(C#N)c(c2)COc2cccc(c2)-c2cc(C#N)nc3ccc1cc23` [Form 13, (S)-3-amino-3-(1-methyl-1H-imidazol-5-yl)-6-oxa-2(4,6)-quinolina-1,4(1,3)-dibenzenacyclohexaphane-2^2,4^4-dicarbonitrile] here?
A: 0.086 mg/mL (≈ 184 µM)

Q: And the “Solubility (mg/mL) 2 h” value [3, 6]?
A: ~0.82 mg/mL (≈ 1750 µM)

Q: What about the “Solubility (mg/mL) 2 h” value ([3]; FeSSIF, pH of media 5.0, 37° C., listed as 1-Hydroxy-2-naphthoate (Form 13)) of the same compound?
A: 0.82 mg/mL (≈ 1750 µM)

Q: What about the “Solubility (mg/mL) 2 h” value ([3]; SGF, pH of media 1.2, 37° C.) of the same compound?
A: ~4.05 mg/mL (≈ 8640 µM)

Q: What about the “Solubility (mg/mL) 2 h” value [3, 10] of the same compound?
A: 4.05 mg/mL (≈ 8640 µM)

Q: What about the “Solubility (mg/mL) 24 h” value ([3]; SGF, pH of media 1.2, 37° C.) of the same compound?
A: ~4.12 mg/mL (≈ 8790 µM)

Q: What about the “Solubility (mg/mL) 24 h” value [3, 10] of the same compound?
A: 4.12 mg/mL (≈ 8790 µM)

Q: And the “Solubility (mg/mL) 2 h” value [3, 11]?
A: 0.020 mg/mL (≈ 42.7 µM)

Q: What about the “Solubility (mg/mL) 24 h” value [3, 11] of the same compound?
A: 0.013 mg/mL (≈ 27.7 µM)

Q: With `Cn1cncc1[C@@]1(N)c2ccc(C#N)c(c2)COc2cccc(c2)-c2cc(C#N)nc3ccc1cc23` [Form 8, (S)-3-amino-3-(1-methyl-1H-imidazol-5-yl)-6-oxa-2(4,6)-quinolina-1,4(1,3)-dibenzenacyclohexaphane-2^2,4^4-dicarbonitrile] as the compound, how does the “Solubility (mg/mL) 2 h” value [3, 12] read?
A: 0.16 mg/mL (≈ 342 µM)

Q: What about the “Solubility (mg/mL) 24 h” value [3, 12] of the same compound?
A: 0.45 mg/mL (≈ 960 µM)

Q: What about the “Solubility (mg/mL) 2 h” value [3, 6] of the same compound?
A: ~1.26 mg/mL (≈ 2690 µM)

Q: What about the “Solubility (mg/mL) 2 h” value [3, 13] of the same compound?
A: 1.26 mg/mL (≈ 2690 µM)

Q: And the “Solubility (mg/mL) 24 h” value [3, 6]?
A: ~1.15 mg/mL (≈ 2450 µM)

Q: And the “Solubility (mg/mL) 24 h” value [3, 13]?
A: 1.15 mg/mL (≈ 2450 µM)

Q: And the “Solubility (mg/mL) 2 h” value ([3]; SGF, pH of media 1.2, 37° C.)?
A: ≥ 5 mg/mL

Q: What about the “Solubility (mg/mL) 2 h” value [3, 14] of the same compound?
A: ~5 mg/mL (≈ 10700 µM)

Q: What about the “Solubility (mg/mL) 24 h” value ([3]; SGF, pH of media 1.2, 37° C.) of the same compound?
A: ≥ 5 mg/mL

Q: And the “Solubility (mg/mL) 24 h” value [3, 14]?
A: ~5 mg/mL (≈ 10700 µM)

Q: What about the “Solubility (mg/mL) 2 h” value [3, 15] of the same compound?
A: 0.43 mg/mL (≈ 918 µM)

Q: And the “Solubility (mg/mL) 24 h” value [3, 15]?
A: 0.34 mg/mL (≈ 726 µM)

Q: Which results are given for `Cn1cncc1[C@@]1(N)c2ccc(C#N)c(c2)COc2cccc(c2)-c2cc(C#N)nc3ccc1cc23` [Amorphous free base, (S)-3-amino-3-(1-methyl-1H-imidazol-5-yl)-6-oxa-2(4,6)-quinolina-1,4(1,3)-dibenzenacyclohexaphane-2^2,4^4-dicarbonitrile]?
A: Solubility (mg/mL) 2 h [3, 16]: 0.085 mg/mL (≈ 181 µM); Solubility (mg/mL) 24 h [3, 16]: 0.09 mg/mL (≈ 192 µM); Solubility (mg/mL) 2 h [3, 6]: 1.22 mg/mL (≈ 2600 µM); Solubility (mg/mL) 24 h [3, 6]: 1.29 mg/mL (≈ 2750 µM); Solubility (mg/mL) 2 h ([3]; SGF, pH of media 1.2, 37° C.): ~5 mg/mL (≈ 10700 µM); Solubility (mg/mL) 24 h ([3]; SGF, pH of media 1.2, 37° C.): ~5 mg/mL (≈ 10700 µM); Solubility (mg/mL) 2 h ([3]; Water, 37° C.): 0.002 mg/mL (≈ 4.27 µM); Solubility (mg/mL) 24 h ([3]; Water, 37° C.): 0.0009 mg/mL (≈ 1.92 µM)
